Assay results: patent US20230002346A1, “NEW COMPOUNDS AND METHODS” (BenevolentAl Bio Limited, priority 2019, published 2023)
Values after ≈ are worked out from the molar mass of the structure shown.

What was measured:
[1] = Rat PK profile (bioavailability, clearance, half-life); assay type: in vivo; settings: male, Sprague Dawley, plasma, i.v. dose 0.5 mg/kg
Method: Male Sprague Dawley Rats 300-350 g (Charles River, UK) were group housed, n=3, under a 12 h light/dark cycle with food and water available ad libitum. At 17:00 on the day prior to dosing all food was removed. On the day of dosing animals were weighed, tail marked and dosed via oral gavage with compound at 3 mg/kg in a volume of 5 mL/kg. Animals were culled at 30 min, 1 h and 4 h post dose via intra-peritoneal administration of pentobarbital. Post mortem blood was withdrawn via cardiac puncture, and briefly stored in K2 EDTA blood tubes on ice before being spun at 14,000 g for 4 min at 4° C. Plasma was withdrawn into a 96 well plate, placed on dry ice and stored at −80° C. Brains were quickly dissected and placed on dry ice before storage at −80° C. Bioanalysis of plasma and brain samples is performed as detailed below. Methods were prepared with guidance from industry standard documents.^i,ii
A 10 mM DMSO stock is used to prepare spiking solutions of test compound in the range of 10-100,000 ng/mL in diluent (MeCN:water, 1;1). Calibration lines are prepared in control male Sprague-Dawley Rat plasma at known concentrations in the range of 1-10000 ng/mL by spiking 2.5 μL of calibration spiking solution into 25 μL control plasma. Experimental samples are thawed to RT and 25 μL aliquots are extracted alongside the calibration lines using protein precipitation (agitation for at least 5 min at RT with 400 μL of MeCN containing 25 ng/mL tolbutamide as an internal standard). Protein precipitates are separated from the extracted test compound by centrifugation at 4000 rpm for 5 min, 4° C. The resulting supernatants are diluted in a ratio of 1:2 with a relevant diluent (e.g. 0.1% formic acid in water or 1:1 MeOH:water). Samples are analysed by UPLC-MS/MS on either an API6500 QTrap or Waters 30 TQS mass spectrometer using previously optimised analytical MRM (multiple reaction monitoring) methods, specific to the test compound. The concentration of test compound in isolated samples is determined following analysis of the samples against the two replicates of the calibration line, injected before and after the sample set with an appropriate regression and weighting used. Only samples within 20% of the expected test concentration are included in the calibration line and any samples that fall outside of the limits of the calibration line will be deemed to be less than or above the limit of quantification (LLoQ/ALoQ).
Pharmacokinetic parameters such as bioavailability (% F), clearance (CL), half-life (T½) and volume of distribution are calculated by non-compartmental analysis using Phoenix Winnonlin 64 software (build 8.0). The bioavailability was calculated from p.o. dosed rats, whereas the clearance and half-life were calculated from i.v. dosed rats. Briefly, in vivo plasma concentrations, timepoints and dose values are imported into the software in a compatible format. Plasma concentration for each animal is plotted against time, and the elimination phase identified and selected. The area under the curve for each plot is calculated using a linear trapezoidal linear interpolation from which pharmacokinetic parameters can subsequently be determined. […] Compounds of the invention have much improved clearance (CL) and half-life (T½) compared to the reference examples.

[2] = tested on: Salmonella typhimurium, strains TA98 and TA100; assay: Ames assay (Bacterial Reverse Mutation Test); assay type: cell-based; settings: TA98 and TA100, presence and absence of S-9 mix, up to 5000 μg/plate
Method: Examples 50, 52 and 54 were tested, in vitro, for their ability to induce mutations in 2 histidine dependent auxotrophic mutants of Salmonella typhimurium, strains TA98 and TA100. The mutation screen was conducted using the plate incorporation method and was performed in both the presence and absence of S-9 mix (a liver post-mitochondrial fraction derived from the livers of Aroclor 1254 treated rats). The bacteria were exposed to the test items dissolved in DMSO, which was also the negative Control. The test items were tested up to the regulatory maximum dose level. The dose levels used were 5, 15, 50, 150, 500, 1500 or 5000 μg/plate, unless the highest treatment level of the test items was limited by solubility, or toxicity against the background bacterial lawn. Dose levels were expressed in terms of the free base.
There were no increases of 2-fold or greater in revertant numbers compared with negative Control values in either strain at any dose level in the presence or absence of S-9 mix, so Examples 50, 52 and 54 were not mutagenic in the Bacterial Reverse Mutation (i.e. Ames) Test under the conditions of this screen.

[3] = Brain to plasma (B:P) ratio in rat; assay type: in vivo, Sprague Dawley Rats; settings: male, Sprague Dawley, iv, i.v. 0.5 mg/kg, 5% NMP in 30% HPBC in water, timepoints averaged 0.17-1 h
[4] = Kinetic aqueous solubility assay; assay type: physicochemical; settings: aqueous buffer, kinetic from dmso stock, 0.05M potassium phosphate buffer pH 7.4, 250 μM spike, RT
Procedure, shortened: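 Compound added from DMSO stock into 0.05M potassium phosphate buffer pH 7.4 at 250 μM final, shaken 30 min at RT to induce precipitation (n=2). Appearance noted visually. Filtrate concentration determined by UV peak area against calibration standards.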

In the case of `O=C(Nc1ccc(OC(F)(F)Cl)cc1)c1ccc(=O)n(-c2cncc(F)c2)c1` [Example 54, N-[4-[Chloro(difluoro)methoxy]phenyl]-1-(5-fluoro-3-pyridyl)-6-oxo-pyridine-3-carboxamide], the clearance ([1]; iv) is reported as 4 mL/min/kg, the half-life ([1]; iv, read-out: T½ (converted)) is reported as 7.6 h and the bioavailability ([1]; po, p.o. dose 3 mg/kg) is reported as 97%. The “mutagenicity in the Bacterial Reverse Mutation (Ames) Test” value [2] was “not mutagenic”, the Kp [3] was 0.53 and the solubility at 30 min [4] was 170 µM (≈ 69.7 µg/mL).
